According to US10913744B2, “LRRK2 inhibitors and methods of making and using the same” (Dana-Farber Cancer Institute, Inc., priority 2015, dated 2021):
Read-outs that look alike come from different tables or passages of the source.

Assays:
[1] = biological target: JAK1 (JH1domain-catalytic) (Homo sapiens (Human), UniProt P23458); test: KinomeScan; assay type: binding; conditions: 1 uM
ZAP70 = ZAP70 (Homo sapiens (Human), UniProt P43403); test: Dundee profiling
ARK5 = ARK5 (Homo sapiens (Human), UniProt O60285); test: KinomeScan; assay type: binding; conditions: 1 uM
IRAK4 [2] = biological target: T1, IRAK4 (Homo sapiens (Human), UniProt Q9NWZ3); test: KinomeScan; assay type: binding; conditions: 1 uM
WNK1 = WNK1 (Homo sapiens (Human), UniProt Q9H4A3); test: KinomeScan; assay type: binding; conditions: 1 uM
VEG-FR = test: Dundee profiling
PDK1 = PDK1 (Homo sapiens (Human), UniProt O15530); test: Dundee profiling
IRAK4 [3] = biological target: T1, IRAK4; test: Dundee profiling
ERK5 = ERK5 (Homo sapiens (Human), UniProt Q13164); test: Dundee profiling
LKB1 = LKB1 (Homo sapiens (Human), UniProt Q15831); test: Dundee profiling
STK33 = STK33 (Homo sapiens (Human), UniProt Q9BYT3); test: Dundee profiling
ROCK2 = ROCK2 (Homo sapiens (Human), UniProt O75116); test: Dundee profiling
MET (M1250T) = MET (M1250T) (Homo sapiens (Human), UniProt P08581, M1250T); test: KinomeScan; assay type: binding; conditions: 1 uM
SIK3 = SIK3 (Homo sapiens (Human), UniProt Q9Y2K2); test: Dundee profiling
MET (Y1235D) = MET (Y1235D) (Homo sapiens (Human), UniProt P08581, Y1235D); test: KinomeScan; assay type: binding; conditions: 1 uM
PHK = test: Dundee profiling
PKA = PKA (Homo sapiens (Human), UniProt P17612); test: Dundee profiling
CSNK1G2 = CSNK1G2 (Homo sapiens (Human), UniProt P78368); test: KinomeScan; assay type: binding; conditions: 1 uM
GCK = GCK (Homo sapiens (Human), UniProt Q12851); test: Dundee profiling
PFTK1 = PFTK1 (Homo sapiens (Human), UniProt O94921); test: KinomeScan; assay type: binding; conditions: 1 uM
HIPK2 = HIPK2 (Homo sapiens (Human), UniProt Q9H2X6); test: Dundee profiling
BTK = BTK (Homo sapiens (Human), UniProt Q06187); test: Dundee profiling
Chain of BTK (Q06187 whole entry, looked up, species assumed): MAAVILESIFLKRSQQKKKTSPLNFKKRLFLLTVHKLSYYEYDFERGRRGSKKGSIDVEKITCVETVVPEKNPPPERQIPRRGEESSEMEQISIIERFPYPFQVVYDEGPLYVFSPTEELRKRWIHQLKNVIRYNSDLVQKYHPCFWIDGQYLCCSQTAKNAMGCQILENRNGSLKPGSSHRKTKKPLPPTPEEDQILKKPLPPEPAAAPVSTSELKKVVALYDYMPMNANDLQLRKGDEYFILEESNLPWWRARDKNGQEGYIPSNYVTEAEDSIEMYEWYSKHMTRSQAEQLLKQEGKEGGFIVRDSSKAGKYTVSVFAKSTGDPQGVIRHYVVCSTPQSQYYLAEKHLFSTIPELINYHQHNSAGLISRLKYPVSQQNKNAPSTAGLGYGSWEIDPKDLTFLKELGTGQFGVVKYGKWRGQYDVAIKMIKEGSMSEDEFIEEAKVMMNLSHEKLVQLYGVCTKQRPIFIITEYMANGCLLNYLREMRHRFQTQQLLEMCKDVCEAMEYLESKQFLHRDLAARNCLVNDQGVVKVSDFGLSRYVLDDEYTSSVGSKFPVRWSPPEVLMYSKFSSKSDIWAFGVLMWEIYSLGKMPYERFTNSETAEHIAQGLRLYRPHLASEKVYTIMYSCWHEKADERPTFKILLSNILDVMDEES

EF2K = EF2K (Homo sapiens (Human), UniProt O00418); test: Dundee profiling
MST3 = MST3 (Homo sapiens (Human), UniProt Q9Y6E0); test: Dundee profiling
TIE2 = TIE2 (Homo sapiens (Human), UniProt Q02763); test: Dundee profiling
Chain of TIE2 (Q02763 23-1124, species assumed): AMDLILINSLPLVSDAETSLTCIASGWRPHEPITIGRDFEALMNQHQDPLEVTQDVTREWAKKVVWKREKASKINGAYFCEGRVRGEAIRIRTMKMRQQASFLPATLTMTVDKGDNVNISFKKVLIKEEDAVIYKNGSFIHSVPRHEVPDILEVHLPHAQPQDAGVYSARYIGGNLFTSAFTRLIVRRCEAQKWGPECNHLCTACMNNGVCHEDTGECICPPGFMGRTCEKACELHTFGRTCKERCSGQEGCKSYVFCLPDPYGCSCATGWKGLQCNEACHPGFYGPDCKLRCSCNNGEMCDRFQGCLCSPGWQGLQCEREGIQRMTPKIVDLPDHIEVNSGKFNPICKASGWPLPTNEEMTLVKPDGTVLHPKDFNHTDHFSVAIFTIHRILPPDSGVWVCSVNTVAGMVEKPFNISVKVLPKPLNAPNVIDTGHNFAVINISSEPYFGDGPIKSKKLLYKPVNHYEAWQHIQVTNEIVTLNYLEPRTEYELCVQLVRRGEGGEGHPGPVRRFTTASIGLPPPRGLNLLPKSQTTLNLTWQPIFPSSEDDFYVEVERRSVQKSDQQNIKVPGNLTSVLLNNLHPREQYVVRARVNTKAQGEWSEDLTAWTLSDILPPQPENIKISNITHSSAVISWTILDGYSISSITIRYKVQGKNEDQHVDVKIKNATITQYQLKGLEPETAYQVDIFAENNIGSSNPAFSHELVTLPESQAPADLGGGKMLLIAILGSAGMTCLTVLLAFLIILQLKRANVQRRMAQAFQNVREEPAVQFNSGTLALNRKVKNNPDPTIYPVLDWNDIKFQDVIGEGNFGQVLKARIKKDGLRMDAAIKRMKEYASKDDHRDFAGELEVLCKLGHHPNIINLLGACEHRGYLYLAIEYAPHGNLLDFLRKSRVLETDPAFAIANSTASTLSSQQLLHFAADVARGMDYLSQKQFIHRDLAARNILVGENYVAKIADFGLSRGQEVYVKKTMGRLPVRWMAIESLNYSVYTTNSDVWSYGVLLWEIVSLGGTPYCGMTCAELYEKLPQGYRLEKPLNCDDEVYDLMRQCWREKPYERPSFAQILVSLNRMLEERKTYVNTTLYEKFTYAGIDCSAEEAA

TBK1 = TBK1 (Homo sapiens (Human), UniProt Q9UHD2); test: Dundee profiling
PIM1 = PIM1 (Homo sapiens (Human), UniProt P11309); test: Dundee profiling
Chain of PIM1 (P11309 whole entry, looked up, species assumed): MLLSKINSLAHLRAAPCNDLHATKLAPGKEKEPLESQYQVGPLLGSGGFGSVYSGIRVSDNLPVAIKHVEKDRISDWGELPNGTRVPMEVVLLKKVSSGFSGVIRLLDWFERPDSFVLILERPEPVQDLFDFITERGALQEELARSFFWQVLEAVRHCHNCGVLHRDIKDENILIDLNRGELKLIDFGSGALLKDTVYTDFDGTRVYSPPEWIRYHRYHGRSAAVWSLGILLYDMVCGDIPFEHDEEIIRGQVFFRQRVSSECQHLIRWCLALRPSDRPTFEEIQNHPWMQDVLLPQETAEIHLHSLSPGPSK

DCAMKL1 = DCAMKL1 (Homo sapiens (Human), UniProt O15075); test: KinomeScan; assay type: binding; conditions: 1 uM
DYRK2 = DYRK2 (Homo sapiens (Human), UniProt Q92630); test: Dundee profiling
Chain of DYRK2 (Q92630 whole entry, looked up, species assumed): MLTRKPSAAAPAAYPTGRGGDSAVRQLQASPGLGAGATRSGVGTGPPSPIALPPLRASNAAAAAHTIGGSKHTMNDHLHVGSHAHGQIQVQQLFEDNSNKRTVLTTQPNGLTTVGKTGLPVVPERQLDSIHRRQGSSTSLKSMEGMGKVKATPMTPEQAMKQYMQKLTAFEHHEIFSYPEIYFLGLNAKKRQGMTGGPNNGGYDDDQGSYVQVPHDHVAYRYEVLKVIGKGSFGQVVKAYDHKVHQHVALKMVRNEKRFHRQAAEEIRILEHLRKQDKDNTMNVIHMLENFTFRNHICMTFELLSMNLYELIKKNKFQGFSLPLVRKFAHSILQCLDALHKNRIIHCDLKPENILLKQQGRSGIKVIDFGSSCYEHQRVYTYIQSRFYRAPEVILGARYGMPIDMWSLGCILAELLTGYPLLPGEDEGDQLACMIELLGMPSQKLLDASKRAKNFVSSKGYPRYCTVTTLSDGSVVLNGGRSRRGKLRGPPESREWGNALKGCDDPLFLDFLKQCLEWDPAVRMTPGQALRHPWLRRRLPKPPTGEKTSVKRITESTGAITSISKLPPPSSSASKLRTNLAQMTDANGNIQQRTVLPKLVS

IRAK1 = IRAK1 (Homo sapiens (Human), UniProt P51617); test: Dundee profiling
TSSK1 = TSSK1 (Homo sapiens (Human), UniProt Q9BXA7); test: Dundee profiling
Chain of TSSK1 (Q9BXA7 whole entry, species assumed): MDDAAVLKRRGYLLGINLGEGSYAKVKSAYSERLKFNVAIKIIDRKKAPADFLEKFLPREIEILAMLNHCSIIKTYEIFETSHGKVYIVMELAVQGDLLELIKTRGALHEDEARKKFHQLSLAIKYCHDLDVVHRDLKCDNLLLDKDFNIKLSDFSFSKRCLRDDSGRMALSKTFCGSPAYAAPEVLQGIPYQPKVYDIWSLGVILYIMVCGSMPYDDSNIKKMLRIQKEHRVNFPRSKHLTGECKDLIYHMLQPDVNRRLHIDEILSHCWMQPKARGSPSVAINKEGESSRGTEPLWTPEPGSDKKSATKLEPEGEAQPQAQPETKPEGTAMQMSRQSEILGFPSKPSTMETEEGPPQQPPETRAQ

PRK2 = PRK2 (Homo sapiens (Human), UniProt Q16513); test: Dundee profiling
Chain of PRK2 (Q16513 whole entry, species assumed): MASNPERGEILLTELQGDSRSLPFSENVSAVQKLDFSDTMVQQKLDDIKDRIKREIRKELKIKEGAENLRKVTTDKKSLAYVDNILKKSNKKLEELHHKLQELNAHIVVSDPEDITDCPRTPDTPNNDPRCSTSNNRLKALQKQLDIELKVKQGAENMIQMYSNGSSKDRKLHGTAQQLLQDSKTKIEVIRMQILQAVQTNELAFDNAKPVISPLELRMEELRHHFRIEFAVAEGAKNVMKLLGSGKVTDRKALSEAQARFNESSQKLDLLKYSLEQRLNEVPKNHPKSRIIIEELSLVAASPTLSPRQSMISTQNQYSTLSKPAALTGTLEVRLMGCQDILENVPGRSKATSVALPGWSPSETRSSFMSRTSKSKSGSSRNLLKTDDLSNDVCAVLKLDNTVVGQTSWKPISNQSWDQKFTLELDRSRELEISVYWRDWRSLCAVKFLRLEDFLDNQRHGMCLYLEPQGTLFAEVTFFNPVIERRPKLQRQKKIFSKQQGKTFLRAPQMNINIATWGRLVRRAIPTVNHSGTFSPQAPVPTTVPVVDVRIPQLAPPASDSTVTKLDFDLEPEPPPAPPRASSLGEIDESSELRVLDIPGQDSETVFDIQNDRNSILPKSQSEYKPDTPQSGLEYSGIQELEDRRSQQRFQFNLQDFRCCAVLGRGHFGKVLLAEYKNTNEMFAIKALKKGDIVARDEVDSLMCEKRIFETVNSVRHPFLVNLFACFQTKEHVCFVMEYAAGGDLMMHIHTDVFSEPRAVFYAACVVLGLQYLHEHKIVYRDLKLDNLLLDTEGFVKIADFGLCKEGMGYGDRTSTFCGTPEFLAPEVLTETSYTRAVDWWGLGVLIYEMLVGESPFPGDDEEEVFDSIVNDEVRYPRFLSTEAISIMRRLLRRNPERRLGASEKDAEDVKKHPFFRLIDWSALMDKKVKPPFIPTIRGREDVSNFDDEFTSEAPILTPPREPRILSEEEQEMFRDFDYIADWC

EGFR = EGFR (Homo sapiens (Human), UniProt P00533); test: KinomeScan; assay type: binding; conditions: 1 uM
MAP4K3 = MAP4K3 (Homo sapiens (Human), UniProt Q8IVH8); test: Dundee profiling
EGFR (L861Q) = EGFR (L861Q) (Homo sapiens (Human), UniProt P00533, L861Q); test: KinomeScan; assay type: binding; conditions: 1 uM
[4] = read-out: percent remaining enzymatic activity, I1, 1 μM
[5] = read-out: percent remaining enzymatic activity, I10
[6] = read-out: percent remaining enzymatic activity

Chain of ZAP70 (P43403 whole entry, species assumed): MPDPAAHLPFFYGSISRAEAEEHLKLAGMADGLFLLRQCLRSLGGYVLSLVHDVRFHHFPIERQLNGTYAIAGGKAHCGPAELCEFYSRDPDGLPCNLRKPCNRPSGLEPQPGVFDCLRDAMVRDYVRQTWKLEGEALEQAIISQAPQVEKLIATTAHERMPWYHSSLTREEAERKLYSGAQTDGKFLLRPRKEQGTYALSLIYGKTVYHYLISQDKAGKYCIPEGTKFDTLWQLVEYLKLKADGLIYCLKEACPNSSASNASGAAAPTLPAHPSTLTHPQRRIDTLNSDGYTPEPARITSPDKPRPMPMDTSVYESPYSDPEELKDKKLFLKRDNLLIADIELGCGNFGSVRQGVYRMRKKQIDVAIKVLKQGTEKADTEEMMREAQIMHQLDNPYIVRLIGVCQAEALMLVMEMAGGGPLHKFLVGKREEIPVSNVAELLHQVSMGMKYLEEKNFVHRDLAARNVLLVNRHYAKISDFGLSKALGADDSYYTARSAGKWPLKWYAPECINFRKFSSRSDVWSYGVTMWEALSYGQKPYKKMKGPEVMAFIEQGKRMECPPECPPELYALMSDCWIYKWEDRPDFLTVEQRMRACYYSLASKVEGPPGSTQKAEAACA
Chain of JAK1 (JH1domain-catalytic) (P23458 875-1153): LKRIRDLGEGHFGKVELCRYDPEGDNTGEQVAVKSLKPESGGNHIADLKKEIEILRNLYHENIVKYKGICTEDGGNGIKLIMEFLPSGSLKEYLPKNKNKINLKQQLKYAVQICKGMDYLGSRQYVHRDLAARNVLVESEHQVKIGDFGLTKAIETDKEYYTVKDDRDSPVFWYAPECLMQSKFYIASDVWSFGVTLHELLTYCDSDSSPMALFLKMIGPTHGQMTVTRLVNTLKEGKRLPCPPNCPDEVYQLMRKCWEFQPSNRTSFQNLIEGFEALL

`CNc1nc(Nc2ccc(C(=O)N3CCOCC3)cc2OC)nc2[nH]cc(Cl)c12` [Compound 18, (4-((5-chloro-4-(methylamino)-7H-pyrrolo[2,3-d]pyrimidin-2-yl)amino)-3-methoxyphenyl)(morpholino)methanone] gave a KinomeScan value [1] of 77, a remaining activity at 1 µM (ZAP70; [4]) of 101% and a remaining activity at 1 µM (ZAP70; [5]) of 85%. It also gave a KinomeScan value (ARK5) of 89, a KinomeScan value (IRAK4 [2]) of 100 and a KinomeScan value (WNK1) of 95. For the same molecule, the “percent remaining enzymatic activity” value (VEG-FR; I1, 1 μM) was 104%, the “percent remaining enzymatic activity” value (VEG-FR; I10) was 100% and the remaining activity at 1 µM (PDK1; [4]) was 91%. The remaining activity at 1 µM (PDK1; [5]) was 88%, the “percent remaining enzymatic activity” value (IRAK4 [3]; I10) was 82% and the remaining activity at 1 µM (IRAK4 [3]; [6]) was 95%. For the same molecule, the remaining activity at 1 µM (ERK5; [4]) was 76%, the remaining activity at 1 µM (ERK5; [5]) was 52% and the remaining activity at 1 µM (LKB1; [4]) was 103%. It also gave a remaining activity at 1 µM (LKB1; [5]) of 96%, a remaining activity at 1 µM (STK33; [4]) of 22% and a remaining activity at 1 µM (STK33; [5]) of 15%. For the same molecule, the remaining activity at 1 µM (ROCK2; [4]) was 113%, the remaining activity at 1 µM (ROCK2; [5]) was 101% and the KinomeScan value (MET (M1250T)) was 80. For the same molecule, the “percent remaining enzymatic activity” value (SIK3; I10) was 96%, the remaining activity at 1 µM (SIK3; [6]) was 107% and the KinomeScan value (MET (Y1235D)) was 100. For the same molecule, the “percent remaining enzymatic activity” value (PHK; I1, 1 μM) was 13%, the “percent remaining enzymatic activity” value (PHK; I10) was 1% and the remaining activity at 1 µM (PKA; [4]) was 99%. For the same molecule, the remaining activity at 1 µM (PKA; [5]) was 101%, the KinomeScan value (CSNK1G2) was 100 and the remaining activity at 1 µM (GCK; [4]) was 86%. It also gave a remaining activity at 1 µM (GCK; [5]) of 41%, a KinomeScan value (PFTK1) of 82 and a remaining activity at 1 µM (HIPK2; [4]) of 84%. The remaining activity at 1 µM (HIPK2; [5]) was 43%, the “percent remaining enzymatic activity” value (BTK; I10) was 126% and the remaining activity at 1 µM (BTK; [6]) was 116%. For the same molecule, the remaining activity at 1 µM (EF2K; [4]) was 105%, the remaining activity at 1 µM (EF2K; [5]) was 102% and the “percent remaining enzymatic activity” value (MST3; I10) was 95%. For the same molecule, the remaining activity at 1 µM (MST3; [6]) was 102%, the remaining activity at 1 µM (TIE2; [4]) was 104% and the remaining activity at 1 µM (TIE2; [5]) was 94%. It also gave a remaining activity at 1 µM (TBK1; [4]) of 88%, a remaining activity at 1 µM (TBK1; [5]) of 67% and a remaining activity at 1 µM (PIM1; [4]) of 95%. For the same molecule, the remaining activity at 1 µM (PIM1; [5]) was 88%, the KinomeScan value (DCAMKL1) was 74 and the remaining activity at 1 µM (DYRK2; [4]) was 67%. For the same molecule, the remaining activity at 1 µM (DYRK2; [5]) was 18%, the remaining activity at 1 µM (IRAK1; [4]) was 109% and the remaining activity at 1 µM (IRAK1; [5]) was 92%. The remaining activity at 1 µM (TSSK1; [4]) was 14%, the remaining activity at 1 µM (TSSK1; [5]) was 7% and the remaining activity at 1 µM (PRK2; [4]) was 103%. The remaining activity at 1 µM (PRK2; [5]) was 93%, the KinomeScan value (EGFR) was 93 and the “percent remaining enzymatic activity” value (MAP4K3; I10) was 41%. It also gave a remaining activity at 1 µM (MAP4K3; [6]) of 98% and a KinomeScan value (EGFR (L861Q)) of 57.
